This is an account of results in PubChem BioAssay AID1259407 (Chemical Carcinogenesis Research Information System (CCRIS), 2018).

SMILES strings stand for the structures. The source made the active and inactive calls. How the calls were made is not given here.

This series has as its system CCRIS mutagenicity, Ames/micronucleus/aberration tests. Kind of series: CCRIS mutagenicity studies.
The mark [1] stands for this setting: Test System: AMES SALMONELLA TYPHIMURIUM, Strain/Indicator: TA100, Metabolic Activation: NONE, Method: STANDARD PLATE.
Where [2] appears, read: Test System: AMES SALMONELLA TYPHIMURIUM, Strain/Indicator: TA100, Metabolic Activation: NONE, Method: PREINCUBATION
Where [3] appears, read: Test System: AMES SALMONELLA TYPHIMURIUM, Strain/Indicator: TA1535, Metabolic Activation: NONE, Method: PREINCUBATION

For the molecule `COP(N)(=O)SC` (stereo unspecified), the mutagenic call (Test System: Ames Salmonella typhimurium, Strain/Indicator: TA98, Metabolic Activation: None, Method: Preincubation) was “active; positive”; the mutagenic call (Test System: Ames Salmonella typhimurium, Strain/Indicator: TA98, Metabolic Activation: Rat, Liver, S-9 (10%), Aroclor 1254, Method: Preincubation) was “active; positive”; the mutagenic call (Test System: Ames Salmonella typhimurium, Strain/Indicator: TA100, Metabolic Activation: None, Method: Preincubation) is “inactive; negative”; the mutagenic call (Test System: Ames Salmonella typhimurium, Strain/Indicator: TA100, Metabolic Activation: Rat, Liver, S-9 (10%), Aroclor 1254, Method: Preincubation) was “inactive; negative”.
For `CN(C)CCc1cc(O)ccc1CNc1ccccn1`, the mutagenic call is, setting by setting: (Test System: AMES SALMONELLA TYPHIMURIUM, Strain/Indicator: TA97, Metabolic Activation: NONE, Method: STANDARD PLATE) “inactive; negative”; (Test System: AMES SALMONELLA TYPHIMURIUM, Strain/Indicator: TA97, Metabolic Activation: RAT, LIVER, S-9, AROCLOR 1254, Method: STANDARD PLATE) “inactive; negative”; (Test System: AMES SALMONELLA TYPHIMURIUM, Strain/Indicator: TA98, Metabolic Activation: NONE, Method: STANDARD PLATE) “inactive; negative”; (Test System: AMES SALMONELLA TYPHIMURIUM, Strain/Indicator: TA98, Metabolic Activation: RAT, LIVER, S-9, AROCLOR 1254, Method: STANDARD PLATE) “inactive; negative”; under setting [1], “inactive; negative”; (Test System: AMES SALMONELLA TYPHIMURIUM, Strain/Indicator: TA100, Metabolic Activation: RAT, LIVER, S-9, AROCLOR 1254, Method: STANDARD PLATE) “inactive; negative”. Also, the mutagenic call runs as follows: (Test System: AMES SALMONELLA TYPHIMURIUM, Strain/Indicator: TA102, Metabolic Activation: NONE, Method: STANDARD PLATE) “inactive; negative”; (Test System: AMES SALMONELLA TYPHIMURIUM, Strain/Indicator: TA102, Metabolic Activation: RAT, LIVER, S-9, AROCLOR 1254, Method: STANDARD PLATE) “inactive; negative”.
As for `CCCCN(N=O)C(N)=O`, the mutagenic call was “active; positive” under setting [2]; “active; positive” (Test System: AMES SALMONELLA TYPHIMURIUM, Strain/Indicator: TA100, Metabolic Activation: RAT, LIVER, S-9, KC500 OR PHENOBARBITAL, Method: LIQUID SUSPENSION); “active; positive” under setting [3]; “active; positive” (Test System: AMES SALMONELLA TYPHIMURIUM, Strain/Indicator: TA1535, Metabolic Activation: NONE, Method: STANDARD PLATE); “active; positive” (Test System: CHINESE HAMSTER V-79, Strain/Indicator: V-79/6-THIOGUANINE, Metabolic Activation: NONE, Method: FLASK ASSAY); “active; positive” (Test System: CHO/HGPRT, Strain/Indicator: CHO-K1-BH4, Metabolic Activation: NONE, Method: STANDARD PLATE). For the same molecule, the mutagenic call reads like this: (Test System: E. COLI B, Strain/Indicator: H/R30R, Metabolic Activation: NONE) “active; positive”; (Test System: E. COLI B, Strain/Indicator: HS30R, Metabolic Activation: NONE) “active; positive”; (Test System: E. COLI, Strain/Indicator: WP2, Metabolic Activation: NONE, Method: STANDARD PLATE) “active; positive”; (Test System: E. COLI, Strain/Indicator: WP2 UVRA, Metabolic Activation: NONE, Method: PREINCUBATION) “active; positive”; (Test System: E. COLI, Strain/Indicator: WP2 UVRA, Metabolic Activation: NONE, Method: STANDARD PLATE) “active; positive”; (Test System: E. COLI, Strain/Indicator: WP2 UVRA, Metabolic Activation: RAT, LIVER, S-9, PHENOBARBITAL AND 5,6-BENZOFLAVONE, Method: PREINCUBATION) “active; positive”.
For the molecule `[CH3][Sn]([CH3])([CH3])[CH3]`, the mutagenic call was “inactive; negative” (Test System: AMES SALMONELLA TYPHIMURIUM, Strain/Indicator: TA98, Metabolic Activation: NONE, Method: SUSPENSION/PLATE) and “inactive; negative” (Test System: AMES SALMONELLA TYPHIMURIUM, Strain/Indicator: TA100, Metabolic Activation: NONE, Method: SUSPENSION/PLATE).
Consider `COc1cccc2c1C(=O)c1c(O)c3c(c(O)c1C2=O)C[C@@](O)(C(C)=O)C[C@@H]3O[C@H]1C[C@H](NCc2ccccc2)[C@H](O)[C@H](C)O1`, for which the mutagenic call (Test System: UDS RAT HEPATOCYTES, Strain/Indicator: THY INCORP, Metabolic Activation: NONE, Method: AUTOMATIC COLONY COUNTER) is “active; positive”.
For the molecule `CC(C)(C)OCC1CO1` (stereo unspecified), the mutagenic call (Test System: AMES SALMONELLA TYPHIMURIUM, Strain/Indicator: TA100, Metabolic Activation: HAMSTER, LIVER, S-9, AROCLOR 1254 (30%), Method: PREINCUBATION) was “active; positive”; the mutagenic call under setting [2] is “active; positive”; the mutagenic call (Test System: AMES SALMONELLA TYPHIMURIUM, Strain/Indicator: TA100, Metabolic Activation: RAT, LIVER, S-9, AROCLOR 1254 (30%), Method: PREINCUBATION) is “active; positive”; the mutagenic call (Test System: AMES SALMONELLA TYPHIMURIUM, Strain/Indicator: TA1535, Metabolic Activation: HAMSTER, LIVER, S-9, AROCLOR 1254 (30%), Method: PREINCUBATION) was “active; positive”; the mutagenic call under setting [3] is “active; positive”; the mutagenic call (Test System: AMES SALMONELLA TYPHIMURIUM, Strain/Indicator: TA1535, Metabolic Activation: RAT, LIVER, S-9, AROCLOR 1254 (30%), Method: PREINCUBATION) was “active; positive”.
`Oc1cnc2ccccc2c1`: the mutagenic call was “inactive; negative” under setting [1] and “inactive; negative” (Test System: AMES SALMONELLA TYPHIMURIUM, Strain/Indicator: TA100, Metabolic Activation: RAT, LIVER, S-9, AROCLOR 1254 (10% OR 20%), Method: STANDARD PLATE).
Consider `O=C(NO)c1ccccc1`, for which the mutagenic call is “active; positive” (Test System: AMES SALMONELLA TYPHIMURIUM, Strain/Indicator: TA97, Metabolic Activation: HAMSTER, LIVER, S-9, AROCLOR 1254 (10%), Method: PREINCUBATION); “active; positive” (Test System: AMES SALMONELLA TYPHIMURIUM, Strain/Indicator: TA97, Metabolic Activation: NONE, Method: PREINCUBATION); “active; positive” (Test System: AMES SALMONELLA TYPHIMURIUM, Strain/Indicator: TA97, Metabolic Activation: RAT, LIVER, S-9, AROCLOR 1254 (10%), Method: PREINCUBATION); “active; positive” (Test System: AMES SALMONELLA TYPHIMURIUM, Strain/Indicator: TA98, Metabolic Activation: HAMSTER, LIVER, S-9, AROCLOR 1254 (10 OR 30%), Method: PREINCUBATION); “active; positive” (Test System: AMES SALMONELLA TYPHIMURIUM, Strain/Indicator: TA98, Metabolic Activation: NONE, Method: PREINCUBATION); “active; positive” (Test System: AMES SALMONELLA TYPHIMURIUM, Strain/Indicator: TA98, Metabolic Activation: RAT, LIVER, S-9, AROCLOR 1254 (10%), Method: PREINCUBATION). The mutagenic call was “active; positive” (Test System: AMES SALMONELLA TYPHIMURIUM, Strain/Indicator: TA98, Metabolic Activation: RAT, LIVER, S-9, AROCLOR 1254 (30%), Method: PREINCUBATION); “active; positive” (Test System: AMES SALMONELLA TYPHIMURIUM, Strain/Indicator: TA100, Metabolic Activation: HAMSTER, LIVER, S-9, AROCLOR 1254 (10 OR 30%), Method: PREINCUBATION); “active; positive” under setting [2]; “active; positive” (Test System: AMES SALMONELLA TYPHIMURIUM, Strain/Indicator: TA100, Metabolic Activation: RAT, LIVER, S-9, AROCLOR 1254 (10 OR 30%), Method: PREINCUBATION); “active; positive” (Test System: AMES SALMONELLA TYPHIMURIUM, Strain/Indicator: TA1535, Metabolic Activation: HAMSTER, LIVER, S-9, AROCLOR 1254 (10%), Method: PREINCUBATION); “inactive; negative” under setting [3]. The mutagenic call is, setting by setting: (Test System: AMES SALMONELLA TYPHIMURIUM, Strain/Indicator: TA1535, Metabolic Activation: RAT, LIVER, S-9, AROCLOR 1254 (10%), Method: PREINCUBATION) “active; positive”; (Test System: AMES SALMONELLA TYPHIMURIUM, Strain/Indicator: TA1537, Metabolic Activation: HAMSTER, LIVER, S-9, AROCLOR 1254 (10%), Method: PREINCUBATION) “active; positive”; (Test System: AMES SALMONELLA TYPHIMURIUM, Strain/Indicator: TA1537, Metabolic Activation: NONE, Method: PREINCUBATION) “active; positive”; (Test System: AMES SALMONELLA TYPHIMURIUM, Strain/Indicator: TA1537, Metabolic Activation: RAT, LIVER, S-9, AROCLOR 1254 (10%), Method: PREINCUBATION) “active; positive”.
